Measured values taken from publication PMC7711817, “Quantitative, High-Throughput Assays for Proteolytic Degradation of Amylin” (Methods and Protocols, 2020).
Entries after “also recorded” stand apart in the source; their conditions may differ. Read-outs that look alike come from different tables or passages of the source. Where no end group is shown, it is not given here.

Legend:
[1] = target: T1, recombinant human IDE (Homo sapiens, UniProt P14735); assay: Fluorescence change on full cleavage by IDE; format: biochemical; set-up: made in house; details: complete hydrolysis by excess IDE, 1 μM substrate, before avidin-agarose precipitation
Description: Substrates were dissolved in DMSO as 1 mM stocks as calculated from the manufacturer-provided weight of lyophylized peptide and its MW, taking into account purity levels. […] The specific activity of recombinant IDE was verified to be within 5% of the value determined from protein concentration (quantified by nanodrop).
For fluorescence-dequenching assays, reactions were typically performed directly in low-volume 384-well microplates, and because the measurements could be monitored continuously, there was no need to stop the reactions. To that end, 3× IDE solution (10 µL) was combined with 3× compound or DMSO (10 µL) and allowed to equilibrate for ≥5 min at room temperature. Reactions were initiated by addition of 3× FrAB substrate (10 µL), typically at 100 nM final concentration. Fluorescence (λex = 336 nm, λem = 490 nm) was monitored repeatedly at frequent intervals (e.g., 30 s) on a multilabel plate reader (SpectraMAX, Molecular Devices, San Jose, CA, USA) using the default fluorescence measurement protocol.

[2] = test system: avidin-agarose; assay: Avidin-agarose precipitation of fluoresceinated and biotinylated amylin substrates; format: binding; details: for precipitation by / binding to avidin(-agarose) of uncleaved substrate: uncleaved substrate (- IDE), 1 μM, fluorescence read-out
Description: In previous work, we developed robust proteolytic degradation assays for Aβ [18] and glucagon on the basis of synthetic versions of these substrates containing fluorescein at the N‑terminus and biotin (in the form of Lys(Ahx-biotin)) at the C-terminus. This general approach enables a facile method for detecting hydrolysis, which we call avidin-agarose precipitation (AP). Briefly, hydrolysis can be readily quantified by removing the intact (biotinylated and fluoresceinated) substrates with avidin-agarose, then quantifying the remaining (fluoresceinated only) proteolytic fragments by fluorescence. This approach has the advantage of being readily implementable in any laboratory equipped with a fluorescence reader. Although convenient, the AP protocol requires centrifugation and liquid transfer steps that make it less amenable to high-throughput or robotized applications (Figure 1a).
Because the C-terminal portion of human amylin is the most aggregation-prone region of the peptide, we hypothesized that strong secondary structure in this area may have rendered the biotin moiety inaccessible to productive interactions with avidin. […] In one version, substrate 2 (Figure 1c; Table 1), we swapped the positions of the fluorescein and biotin groups, while in the other, substrate 3 (Figure 1d; Table 1), we maintained their placement at the N‑ and C-termini, respectively. […] On the basis of these preliminary results, we elected to use substrate 3 for downstream assay development, renaming it FrAB (fluorescein-rodent amylin-biotin). As expected, hydrolysis of FrAB could be readily monitored using the AP protocol, with hydrolysis resulting in a steady increase in fluorescence signal as a function of time in the presence of low quantities of IDE (Figure 1e).

[3] = test system: beta-site APP-cleaving enzyme 2 (BACE2); details: cited from earlier work
Description: Amylin is a 37-residue peptide with a highly conserved sequence that is present in all mammals. To be fully active, two major post-translational modifications are required: a C-terminal amide (Tyr37) and a disulfide bond between two cysteine residues found at positions 2 and 7 [6]. […] As is true for other amyloidogenic substrates, such as the amyloid β-protein (Aβ), it is likely that multiple amylin proteases exist that work in ...

[4] = test system: insulin-degrading enzyme (IDE); details: cited from earlier work
Description: Amylin is a 37-residue peptide with a highly conserved sequence that is present in all mammals. To be fully active, two major post-translational modifications are required: a C-terminal amide (Tyr37) and a disulfide bond between two cysteine residues found at positions 2 and 7 [6]. […] As is true for other amyloidogenic substrates, such as the amyloid β-protein (Aβ), it is likely that multiple amylin proteases exist that work in ... || We also developed a FRET-based fluorescence dequenching assay, which was successful in many respects, but about which some caution is warranted. First, the particular placement of the fluorescing EDANS and quenching DABCYL groups was designed to be optimal for a known cleavage site hydrolyzed by IDE [26]. This particular placement may not be ideal for other amylin proteases, depending on where they cleave the peptide. Secondly, whereas the FrAB-based AP and FP protocols both yielded kinetic parameters close to one another and also similar in magnitude to those obtained for other IDE substrat ...

[5] = Effect of avidin concentration on FP (mP) of FrAB; format: binding
Description: To assess the suitability of FrAB to the FP protocol, we measured the degree of depolarization (measured in millipolarization units, mP) in uncleaved versus fully cleaved substrate in the absence or presence of excess avidin. […] Not only was substantially less depolarization observed with the intact substrate alone, but the depolarization was reduced even further by the addition of avidin (Figure 1g). As expected from the preceding results, hydrolysis of FrAB as a function of time could be readily monitored using the FP protocol (Figure 1h).
Avidin (and avidin-agarose) is an expensive reagent, and thus it is valuable to establish the minimum avidin/FrAB ratio necessary for reliable results. To that end, we added varying amounts of avidin to a fixed quantity (100 nM) of both cleaved and uncleaved FrAB and assessed the results using the FP protocol. […] Accordingly, we recommend that a minimum avidin/FrAB ratio of ≈10:1 be used in practice.

[6] = target: T1, recombinant human IDE; details: FrAB substrate, AP protocol, 1 nM IDE; mean ± SEM of four independent replications
Description: The specific activity of recombinant IDE was verified to be within 5% of the value determined from protein concentration (quantified by nanodrop).
To ensure homogeneity of solution concentrations, we mixed all solutions well by gentle rocking on a nutator for ≥10 min at room temp (21–23 °C), and dispensed them manually using 16-channel pipettors fitted with 20-µL FinnTip pipette tips. For experiments conducted in 384-well plates, or transfers thereto, mixing was performed by ≥3 rounds of trituration after dispensing of the final solution. […] After we carefully removed the tubes from the centrifuge to avoid disturbing the pelleted avidin-agarose, the supernatant was transferred to low-volume 384-well microplates (30 µL/well), then fluorescence (λex = 485 nm, λem = 515 nm) was read on a multilabel plate reader (SpectraMAX, Molecular Devices, San Jose, CA, USA).
(§1) For all assays, results were normalized to data from negative (0% hydrolysis, no IDE) and positive (100% hydrolysis, excess IDE) controls and, where appropriate, expressed as percent hydrolysis. In the case of AP-based assays, percent hydrolysis was a linear function of the percent maximal change in relative fluorescence (RFU; %ΔRFU) between positive and negative controls. […]

[7] = target: T1, recombinant human IDE; details: FrAB substrate, FP protocol (corrected), 1 nM IDE; mean ± SEM of four independent replications
Description: For fluorescence polarization (FP)-based assays, reactions were typically performed directly in low-volume 384-well microplates. To that end, 3× IDE solution (8 µL) was combined with 3× compound or DMSO (8 µL) and allowed to equilibrate for ≥5 min at room temperature. Reactions were initiated by addition of 3× FrAB substrate (8 µL), typically at 100 nM final concentration, except where indicated. After the appropriate incubation period, reactions were terminated by addition of 4× FP Stop Buffer (8 µL; PBS/0.05% biotin-free BSA containing a final concentration of 2 mM 1,10-phenanthroline and 10-fold molar excess avidin (monomer)), triturated ≥3 times to ensure even mixing. […] Fluorescence polarization (λex = 485 nm, λem = 515 nm) was read on a multilabel plate reader (SpectraMAX M5^e, Molecular Devices, San Jose, CA, USA) using the default fluorescence polarization protocol, with the g-factor value maintained at 1.0. high-throughput screening (HTS) being performed manually using a 16-channel pipettor.
as §1

[8] = cited from earlier work
Description: Amylin, also known as islet amyloid polypeptide, is a peptide hormone that is stored in pancreatic beta-cells and co-secreted with insulin in response to many factors, including glucose, arginine, and fatty acids. Amylin plays a role in inhibiting glucagon secretion and delaying gastric emptying as well as modulating other aspects of food processing and satiety.

Q: Which “fluorescence increase relative to uncleaved substrate (in words)” value [1] does the source give for “[5-FAM]KCNTATCATQRLANFLVHSSNNFGAILSSTNVGSNTY[Lys(Ahx-biotin)]-amide (disulfide) (5-FAM N-term, Lys(Ahx-biotin) C-term amide, disulfide) [Substrate 1]” here?
A: Its value is “modest increase in fluorescence”.

Q: What about the “precipitation by / binding to avidin(-agarose) of uncleaved substrate” value (“precipitation by / binding” for short) [2] of the same substance?
A: Its value is “biotin does not bind to avidin”.

Q: What about the “precipitation by / binding” value ([2]; listed as substrate 1) of the same substance?
A: The value was “could not be precipitated by avidin-agarose”.

Q: For “amylin: 37-residue pancreatic peptide hormone, also known as islet amyloid polypeptide (KCNTATCATQRLANFLVHSSNNFGAILSSTNVGSNTY; not fully specified (C-terminus, bridges); cysteine pairing not given here; UniProt P10997 34-70, looked up)”, which “hydrolysis by BACE2” value [3] is on record?
A: Its value is “can be hydrolyzed”.

Q: What about the “hydrolysis by IDE” value [4] of the same substance?
A: Its value is “can be hydrolyzed”.

Q: With “avidin: avidin, a 64-kDa tetramer; egg white avidin [reference compound]” as the substance, how does the EC50 ([5]; avidin (monomer) concentration, uncleaved FrAB 100 nM, FP, n = 4 (mean ± SEM), read-out: apparent EC50 of avidin for increase in mP) read?
A: Its EC50 is 33.5 ± 7.5 nM.

Q: And the “avidin concentration at which increase in mP values reaches a plateau” value ([5]; avidin (monomer), 100 nM FrAB, FP protocol)?
A: Its value is “≈ 1 µM”.

Q: For fluorescein-rodent amylin-biotin [FrAB], which “depolarization of light by fully cleaved substrate” value ([5]; FrAB 1 μM, fully hydrolyzed (+ IDE) vs. uncleaved, FP) is on record?
A: The value was “significantly more than uncleaved substrate”.

Q: What about the “effect of avidin on mP of fully cleaved substrate” value ([5]; fully cleaved FrAB, 100 nM, FP protocol) of the same substance?
A: Its value is “unaffected by avidin; also recorded: unaffected even by very high concentrations of avidin”.

Q: And the kcat/KM [6]?
A: Its kcat/KM is “≈ 1 × 10^7 M^-1 s^-1”.

Q: What about the “fluorescence of fully cleaved substrate after avidin-agarose precipitation” value ([2]; fully cleaved by IDE, 1 μM substrate, listed as substrate 3) of the same substance?
A: The value was “remained constant before and after AP; also recorded: strong fluorescence signal after precipitation”.

Q: And the “precipitation by / binding” value ([2]; listed as substrate 3)?
A: Its value is “readily precipitated by avidin-agarose”.

Q: What about the kcat/KM [7] of the same substance?
A: The kcat/KM was “≈ 1 × 10^7 M^-1 s^-1”.

Q: For “glucagon: peptide hormone relevant to glucose homeostasis”, which “degradation by IDE” value [4] is on record?
A: The value was “IDE also degrades”.

Q: With “human amylin: aggregation-prone human form of amylin (KCNTATCATQRLANFLVHSSNNFGAILSSTNVGSNTY; not fully specified (C-terminus, bridges); cysteine pairing not given here; UniProt P10997 34-70, looked up)” as the substance, how does the aggregation propensity ([8]; human amylin) read?
A: The aggregation propensity was “highly aggregation-prone”.

Q: For “insulin: peptide hormone relevant to glucose homeostasis”, which “degradation by IDE” value [4] is on record?
A: The value was “IDE also degrades”.

Q: Which aggregation propensity ([8]; rodent amylin vs. human peptide) does the source give for “rodent amylin: rodent amylin, far less prone to aggregation than the human peptide” here?
A: The aggregation propensity was “far less prone to aggregation and secondary structure formation than the human peptide”.
